Measurements: patent US20140335132A1, “BINDING DRUGS WITH NANOCRYSTALLINE CELLULOSE (NCC)” (priority 2010, published 2014)
Structures can show the parent of a compound that is named as a salt.

Tests used:
[1] = Binding of hydrophilic drugs to NCC; assay type: physicochemical; conditions: for final mass of drug bound to NCC for the release studies: 2.5 mg NCC, distilled water then 10 mM NaCl, DOX solution 325 μg/ml, TET solution 1000 μg/ml; for binding efficiency / maximum mass of drug bound to NCC: 2 mg NCC
Description: NCC Drug Binding Procedure: Doxorubicin hydrochloride (DOX) or tetracycline hydrochloride (TET), were dissolved in either 10 mM phosphate buffered saline (PBS) at pH 7.4, or dH2O with increasing drug concentrations ([drugadded]). Drug solutions (1.5 ml) were added to 0.5 ml of NCC suspension in a 2 ml microcentrifuge tube and incubated at 37° C. with tumbling shaking at 8 rpm for 30 minutes. Suspensions containing PBS or NaCl produced flocculated NCC/drug suspensions, which were centrifuged at 18000×g for 10 minutes to pellet the NCC and bound drug. The concentration of unbound drug in the supernatant ([drugunbound]) was assayed using a Varian 50 Bio UV Vis spectrophotometer (Varian, Inc., Mississauga, Ont.) using wavelengths of 482 nm and 364 nm for DOX and TET, respectively. The concentration of drug bound to the NCC ([drugbound]) was calculated using the following equation:
[drugbound]=[drugadded]−[drugunbound] (1)
In this case, the NCC/drug suspensions were transferred to dialysis bags with a molecular weight cut off of 10000 Da (Spectrum Laboratories, Inc., Rancho Dominguez, Calif.) and dialysed against distilled water overnight in the dark at 4° C. The concentration of unbound drug in the dialysate was determined by UV Vis spectroscopy, allowing for the calculation of the amount of drug bound to the NCC according to equation (1).

[2] = In vitro release of drugs from NCC in PBS; assay type: physicochemical; conditions: 10 mM PBS, 37° C.
Description: (§1) Drug Release Procedure: DOX was bound to NCC for release studies by incubating a solution of 325 μg/ml of DOX in distilled water with a suspension containing 2.5 mg of NCC. In order to flocculate the NCC and allow for separation of the NCC/DOX nanocomplexes, NaCl was added to a final concentration of 10 mM. The suspension was centrifuged at 18000×g for 10 minutes to pellet the NCC/DOX and the drug binding was determined by UV Vis spectroscopy as described above. […] NCC/drug nanocomplexes with DTX, PTX and ETOP were prepared as described for the drug binding studies. The concentration of DTX and PTX that was incubated with the NCC suspension was 200 μg/ml and the concentration of ETOP was 100 μg/ml. […] The drug loaded NCC samples were resuspended in 1 ml of PBS followed by incubation at 37° C. with tumbling at 8 rpm. At predetermined times the suspensions were centrifuged at 18000×g for 10 minutes and the supernatant was removed for drug quantitation by UV Vis for DOX and TET or HPLC for DTX, PTX and ETOP, as previously described. At each sampling time point, fresh PBS was added to the tubes and the NCC/drug nanocomplexes were resuspended.

[3] = Binding of hydrophobic drugs to NCC/CTAB nanocomplexes; assay type: physicochemical; conditions: for saturation of binding / binding efficiency to NCC/CTAB nanocomplexes: 12.9 mM CTAB, 2.5 mg NCC, 10 mM NaCl; for binding efficiency to NCC/CTAB nanocomplexes: 25° C., up to 100 μg of drug added; for final mass of drug bound to NCC/CTAB for the release studies: DTX and PTX incubated at 200 μg/ml, ETOP at 100 μg/ml
Description: In order to solubilize the hydrophobic drugs paclitaxel (PTX), docetaxel (DTX) and etoposide (ETOP), the surface of the NCC was first modified with CTAB. This was achieved by incubating increasing amounts of CTAB with 2.5 mg of NCC so the final CTAB concentration varied from 0 mM to 12.9 mM. An aliquot of 100 mM NaCl was added, resulting in a final NaCl concentration of 10 mM, which facilitated flocculation and subsequent separation of the NCC/CTAB nanocomplexes by centrifugation as described above. The NCC/CTAB was incubated with stock solutions of the drugs with increasing concentrations. Since these drugs are characterized by low aqueous solubility, they were solubilized in a minimal amount of either DMSO or diblock copolymer in 10 mM NaCl as previously described. The drug/NCC/CTAB suspensions were incubated at 25° C. with tumbling at 8 rpm for 30 minutes then centrifuged at 18000×g for 10 minutes to pellet the NCC/CTAB and bound drug. The amount of unbound drug in the supernatant was determined by HPLC using a Waters HPLC system with Millennium software and UV Vis detection. Separation was achieved using a Novapak™ C18 column with 20 μl injections and a mobile phase flow rate of 1 ml/min. The DTX and PTX mobile phase consisted of 58% acetonitrile, 37% dH2O and 5% methanol with detection at 232 nm. The mobile phase for ETOP was 27% acetonitrile, 1% acetic acid and 72% dH2O and detection was at 286 nm. Calibration curves were prepared for all drugs and were linear in the desired concentration range. The amount of drug bound to the NCC/CTAB was determined using equation (1).

[4] = In vitro release of drugs from NCC/CTAB nanocomplexes in PBS; assay type: physicochemical; conditions: 12.9 mM CTAB, 10 mM PBS, 37° C.
Description: as §1

[5] = Retention of fluorescein bound to NCC/CTAB in aqueous media; assay type: physicochemical; conditions: upon resuspension or dilution in aqueous media
KU-7 cells = test: Cell binding and uptake of NCC/CTAB/fluorescein (fluorescence, confocal microscopy); assay type: cell-based
Description: FIGS. 10A, B, C and D are confocal micrographs of KU-7 cells incubated for 2 hours with NCC/CTAB/fluoroscein system with a fluorescein concentration of 0.25 mg/ml. (A) White light image of KU-7 cells. (B) Staining of the nuclei with DAPI. (C) Fluorescein in the cytoplasm. (D) An overlay of images B and C.

[6] = dispersion medium PBS 10 mM, pH 7.4
[7] = dispersion medium distilled water

SMILES	saturation of binding [3]	binding efficiency to NCC/CTAB nanocomplexes [3]	final mass of drug bound to NCC/CTAB for the release studies [3] [µg]	bound drug released within the first hour [4]	total bound drug released in two days [4] [%]	final mass of drug bound to NCC for the release studies [1] [µg]	binding efficiency [1, 6] [%]	maximum mass of drug bound to NCC [1, 6] [µg]	binding efficiency [1, 7] [%]	maximum mass of drug bound to NCC [1, 7] [µg]	bound drug released in four hours [2]	bound drug released by one day (plateau) [2] [%]	other results
COc1cccc2c1C(=O)c1c(O)c3c(c(O)c1C2=O)C[C@@](O)(C(=O)CO)C[C@@H]3O[C@H]1C[C@H](N)[C@H](O)[C@H](C)O1 [DOX, Doxorubicin hydrochloride]	–	–	–	–	–	212 ± 3.5	65	122	83	1667	~85%	87	–
CC(=O)O[C@H]1C(=O)[C@@]2(C)[C@H]([C@H](OC(=O)c3ccccc3)[C@]3(O)C[C@H](OC(=O)[C@H](O)[C@@H](NC(=O)c4ccccc4)c4ccccc4)C(C)=C1C3(C)C)[C@]1(OC(C)=O)CO[C@@H]1C[C@@H]2O [PTX, paclitaxel]	approximately 200 μg	approximately 90%	149 ± 4.8	20%	44	–	–	–	–	–	–	–	–
CN(C)[C@@H]1C(O)=C(C(N)=O)C(=O)[C@@]2(O)C(O)=C3C(=O)c4c(O)cccc4[C@@](C)(O)[C@H]3C[C@@H]12 [TET, tetracycline hydrochloride]	–	–	–	–	–	187 ± 2.0	25	251	48	959	approximately 90%	93	drug loading ([1]; almost 500 μg on 2 mg of NCC): 20 % w/w; mass of drug bound to NCC ([1]; bound to 2 mg of NCC (FIG. 2)): ~500 µg
O=C1OC2(c3ccc(O)cc3Oc3cc(O)ccc32)c2ccccc21 [fluorescein]	–	–	–	–	–	–	–	–	–	–	–	–	fluorescein remaining bound to NCC/CTAB [5]: More than 95%; time by which cellular uptake of fluorescein reached a maximum (KU-7 cells): ≤ 2 h

Continued, in another order:

saturation of binding [3]	binding efficiency to NCC/CTAB nanocomplexes [3]	final mass of drug bound to NCC/CTAB for the release studies [3] [µg]	bound drug released within the first hour [4]	total bound drug released in two days [4] [%]	SMILES	final mass of drug bound to NCC for the release studies [1] [µg]	binding efficiency [1, 6] [%]	maximum mass of drug bound to NCC [1, 6] [µg]	binding efficiency [1, 7] [%]	maximum mass of drug bound to NCC [1, 7] [µg]	bound drug released in four hours [2]	bound drug released by one day (plateau) [2] [%]	other results
approximately 200 μg	approximately 90%	184 ± 4.8	Approximately 26%	59	CC(=O)O[C@@]12CO[C@@H]1C[C@H](O)[C@@]1(C)C(=O)[C@H](O)C3=C(C)[C@@H](OC(=O)[C@H](O)[C@@H](NC(=O)OC(C)(C)C)c4ccccc4)C[C@@](O)([C@@H](OC(=O)c4ccccc4)[C@H]21)C3(C)C [DTX, docetaxel]	–	–	–	–	–	–	–	–
–	48%	63 ± 0.1	–	–	COc1cc([C@@H]2c3cc4c(cc3[C@@H](O[C@@H]3O[C@@H]5CO[C@@H](C)O[C@H]5[C@H](O)[C@H]3O)[C@H]3COC(=O)[C@H]23)OCO4)cc(OC)c1O [ETOP, etoposide]	–	–	–	–	–	–	–	maximum mass of drug bound to NCC/CTAB ([3]; 100 μg of drug added): 48 µg; total drug released over four days ([4]; four days): 75%
